Entries after “also recorded” stand apart in the source; their conditions may differ.
Legend:
SOST expression [1] = assay: BMP-6 induction of SOST expression in hMSC cells with test compounds (RT-PCR); format: cell-based, human; settings: for Results (effect on BMP-6 induction of SOST expression): BMP-6, 72 hrs, compound at 1 × 10^−7 M
Procedure: The previous example illustrates that SOST expression was enhanced by bone morphogenetic proteins and modulated by steroids such as dexamethasone. In this example, human MSC cells were incubated with bone morphogenetic proteins in the presence of various test agents to determine whether other steroids and compounds could affect the BMP-induction of SOST. SOST expression was monitored by reverse transcriptase polymerase chain reaction (RT-PCR).
Human mesenchymal cells (hMSCs) were plated in regular growth media containing 2% FCS and treated with BMP-6 either alone or in combination with the test compounds. The cells were harvested 72 hrs later and RNA was prepared for RT-PCR analysis of SOST expression.

SOST expression [2] = assay: SOST expression in hMSC cells and primary human osteoblasts treated with growth factors and hormones (RT-PCR); format: cell-based; settings: 72 hrs; for SOST expression, factor alone: hMSC cells (and primary human osteoblasts), RT-PCR; for SOST expression, steroid added in combination with BMP-4 versus BMP-4 alone: hMSC cells, vit D 10^−7M, RA 10^−6M, DEX 10^−7M
Procedure: (§1) As immature osteoblasts differentiate and become capable of mineralization, they express markers associated with the osteoblast phenotype (type I collagen and parathyroid hormone receptor (PTHr)). These markers were used to ascertain whether differentiation had occurred so that the influence of growth factors and hormones could be correlated with the stage differentiation as well as the level of SOST expression.
(§2) Human mesenchymal cells and primary human osteoblasts were plated in regular growth media containing 2% FCS at a density of 10,000 cells 1 cm^2. Test reagents (10^−7 M dexamethasone, 10^−6 M retinoic acid, 10 ng/ml TGF-β1, PTH (10^−8 M), 10 or 50 ng/ml IGF-1, 10^−7 M1,25-dihydroxyvitamin D3, and 50 to 300 ng/ml of bone morphogenetic proteins 2, 4 or 6) were added singly or in combination on the following day.

gremlin expression = gremlin expression in hMSC cells treated with BMPs and steroids (RT-PCR); format: cell-based, human; settings: 72 hrs; for BMP-4 induced gremlin expression, steroid added with BMP-4: BMP-4 100 ng/ml; for gremlin expression, factor alone: RT-PCR
Procedure: as §1, §2

noggin expression = noggin expression in hMSC cells treated with BMPs and steroids (RT-PCR); format: cell-based, human; settings: 72 hrs
Procedure: as §1, §2

PTHr expression = PTHr expression in hMSC cells treated with factors (RT-PCR); format: cell-based, human; settings: 72 hrs, IGF-1 at 50 ng/ml, DEX 10^−7M
Description: as §1, with “In this example, the effect of growth factors and hormones on SOST expression in hMSC cells or primary human osteoblasts was observed using RT-PCR. […] As” for “As”
as §2, with “day. Cultures were continued for 24 to 120 hrs after which the cells were harvested for RNA isolation.” for “day.”

[3] = test system: BMP-6 stimulated alkaline phosphatase activity; assay: BMP-6 stimulated alkaline phosphatase activity in mouse mesenchymal C3H10T1/2 cells; format: cell-based
Procedure: C3H10T1/2 cells (ATCC Deposit No. CCL-226) were plated in 96-well dishes at a density of 25,000 cells per well in complete growth medium (DMEM with high glucose and glutamine supplemented with 10% FCS, 1% penicillin/streptomycin, 0.1 mM non-essential amino acids, 1 mM sodium pyruvate, 55 μM β-mercaptoethanol, and 20 mM HEPES, pH 7.3). C3H10T1/2 cells were used in a short-term (72 hr) assay to determine the effects of human sclerostin protein on BMP-induced ALP activity. Partially purified preparations of bacculovirus-expressed sclerostin protein were prepared in sterile PBS using NAP-5 columns prior to use. Sclerostin protein (0 to 50 μg/ml) or an equal volume of Sf9 conditioned media (control) was pre-incubated with 500 ng/ml BMP-6 for 1 hr prior to addition to cells. For comparison, similar incubations were carried out with anti-BMP-6 antibody and noggin. Cells were harvested 72 hrs later for determination of ALP activity.
To test the specificity of the sclerostin effect, human sclerostin that was synthesized with a FLAG tag, was pre-incubated for 2 hrs at 4° C. with an anti-FLAG antibody coupled to agarose beads. The mixture was then spun down at 10,000×g for 15 minutes at 4° C. and the supernatant treated as “sclerostin protein” in the above assay.

[4] = test system: alkaline phosphatase (ALP) activity in hMSC cells; assay: alkaline phosphatase activity in differentiating hMSC cells; format: cell-based, human; settings: sclerostin 10 μg/ml and increasing amounts of BMP-6
[5] = test system: alkaline phosphatase (ALP) activity in hMSC cells; assay: as above; format: cell-based, human; settings: hMSC cells, Osteoblast-Inducing media, 7 days
Procedure: hMSC cells were plated in 96-well tissue culture dishes at a density of 10,000 cells/cm^2 in Osteoblast-Inducing medium. Partially purified preparations of baculovirus-expressed sclerostin protein were prepared in sterile PBS using NAP-5 columns prior to use. Human sclerostin protein (0 to 30 μg/ml) or an equal volume of Sf9 conditioned media (Control) was added to cultures of hMSC cells at various times after plating (1 day, 8 days, 15 days, or 21 days). The effects of sclerostin on osteoblastic differentiation were assessed by measuring alkaline phosphatase activity (ALP, determined in cell layers using DEAA buffer (Pierce) containing 0.5% NP-40 and 10 mM p-nitrophenylphosphate), synthesis of collagen type I (Prolagen C ELISA), and calcium deposition for mineralization (colorimetric assay of acid lysates of cell layers, Sigma).

[6] = test system: caspase activity in hMSC cells; assay: apoptosis of hMSC cells by caspase activity (Homogeneous Caspase ELISA); format: cell-based, human; settings: hMSC in osteoblast-inducing media, 20 μg/ml sclerostin or other protein, 24 hours
Procedure: Human mesenchymal (hMSC) cells were plated in Osteoblast-inducing media (Biowhittaker's MSCGM medium supplemented with 100 nM dexamethasone, 50 μg/ml ascorbic acid, and 10 mM β-glycerophosphate) at a density of 10,000 cells/cm^2 in 96-well dishes.
For apoptosis assays, cells were treated with sclerostin or commercially available preparations of the BMP antagonists noggin, chordin, gremlin or twisted gastrulation (Tsg) for 24 hours prior to assay for caspase activity. In some experiments, cells were treated for various times with a partially purified preparation of baculovirus-expressed human sclerostin (0 to 30 μg/ml) or an equal volume of a protein preparation purified from Sf9 conditioned media (control) in the absence or presence of Calbiochem's caspase inhibitors. Cells were harvested and processed for apoptosis assays using the Homogeneous Caspase ELISA (Roche) or Cell Death (Histone-Associated DNA Fragmentation, Roche).

In the case of C[C@@H]1C[C@H]2[C@@H]3CCC4=CC(=O)C=C[C@]4(C)[C@@]3(F)[C@@H](O)C[C@]2(C)[C@@]1(O)C(=O)CO [Dexamethasone, dexamethasone, reference compound], the “induction of SOST expression by BMP-6 (BMP-induced SOST expression)” value (SOST expression [1]; 72 hrs, no single concentration stated in the sentence) is reported as “blocks”, the “Results (effect on BMP-6 induction of SOST expression)” value (SOST expression [1]) is reported as “blocked; also recorded: Inhibition” and the “Results (effect on BMP-6 induction of SOST expression)” value (SOST expression [1]; listed as DEX) is reported as “blocked”. The “SOST expression, factor alone” value (SOST expression [2]) was “no effect”, the “SOST expression, steroid added in combination with BMP-4 versus BMP-4 alone” value (from here on “SOST expression … with BMP-4 versus BMP-4 alone”) (SOST expression [2]) was “abolished the stimulatory effect” and the “SOST expression … with BMP-4 versus BMP-4 alone” value (SOST expression [2]; listed as dexamethasone) was “abolished the stimulatory effect; also recorded: significantly suppressed; also recorded: depressed”. For the same molecule, the “BMP-4 induced gremlin expression, steroid added with BMP-4” value (gremlin expression) was “diminished”, the “gremlin expression, factor alone” value (gremlin expression) was “decreased” and the “noggin expression, factor alone” value (noggin expression) was “increase”. The PTHr expression (PTHr expression) was “induced”.

CC1=C(/C=C/C(C)=C/C=C/C(C)=C/C(=O)O)C(C)(C)CCC1 [retinoic acid, reference compound] was tested, and the “SOST expression, factor alone” value (SOST expression [2]) was “no effect”.

In the case of C=C1/C(=C\C=C2/CCC[C@]3(C)[C@@H]([C@H](C)CCCC(C)(C)O)CC[C@@H]23)C[C@@H](O)C[C@@H]1O [vitamin D, 1,25-dihydroxyvitamin D3, reference compound], the “SOST expression, factor alone” value (SOST expression [2]) is reported as “no effect”, the “SOST expression … with BMP-4 versus BMP-4 alone” value (SOST expression [2]) is reported as “enhanced” and the “BMP-4 induced gremlin expression, steroid added with BMP-4” value (gremlin expression) is reported as “did not alter”. The “gremlin expression, factor alone” value (gremlin expression) was “unchanged” and the “noggin expression, factor alone” value (noggin expression) was “increase”.

With IGF-1: insulin-like growth factor-1 the “SOST expression, factor alone” value (SOST expression [2]) was “enhanced” and the PTHr expression (PTHr expression) was “induced”.

With TGF-β: transforming growth factor-β the “SOST expression, factor alone” value (SOST expression [2]) was “no effect”.

B1: BMP-4: bone morphogenetic protein 4, purchased from R & D Systems (protein, UniProt P12644 293-408, looked up)
Bone morphogenetic protein 4: SPKHHSQRARKKNKNCRRHSLYVDFSDVGWNDWIVAPPGYQAFYCHGDCPFPLADHLNSTNHAIVQTLVNSVNSSIPKACCVPTELSAISMLYLDEYDKVVLKNYQEMVVEGCGCR
B1 was tested, and the “SOST expression, factor alone” value (SOST expression [2]) was “enhanced; also recorded: up-regulated; also recorded: significantly increased”, the “gremlin expression, factor alone” value (gremlin expression) was “only modestly increased; also recorded: enhanced” and the “noggin expression, factor alone” value (noggin expression) was “up-regulated; also recorded: enhanced; also recorded: increase”.

B2: BMP-6: bone morphogenetic protein 6, purchased from R & D Systems (protein)
chain: QQSRNRSTQSQDVARVSSASDYNSSELKTACRKHELYVSFQDLGWQDWIIAPKGYAANYCDGECSFPLNAHMNATNHAIVQTLVHLMNPEYVPKPCCAPTKLNAISVLYFDDNSNVILKKYRNMVVRACGCH
For B2, the “SOST expression, factor alone” value (SOST expression [2]) was “enhanced; also recorded: up-regulated”, the “gremlin expression, factor alone” value (gremlin expression) was “only modestly increased” and the “noggin expression, factor alone” value (noggin expression) was “up-regulated”. For the same molecule, the “ALP activity, effect of BMP-6” value ([3]; 72 hrs) was “increased in a dose-dependent manner; also recorded: stimulatory effect” and the “reversal of the inhibitory effect of sclerostin on alkaline phosphatase” value [4] was “partially reversed”.

B3: PTH: parathyroid hormone (PTH), tested at 10^−8 M (peptide, UniProt P01270 32-115, looked up)
Parathyroid hormone: SVSEIQLMHNLGKHLNSMERVEWLRKKLQDVHNFVALGAPLAPRDAGSQRPRKKEDNVLVESHEKSLGEADKADVNVLTKAKSQ
modifications: Parathyroid hormone
notes: parathyroid hormone (PTH), tested at 10^−8 M
With B3 the “SOST expression, factor alone” value (SOST expression [2]) was “no effect”.

B4: noggin: BMP antagonist protein (mouse noggin), purchased from R & D Systems (protein)
chain: QHYLHIRPAPSDNLPLVDLIEHPDPIFDPKEKDLNETLLRSLLGGHYDPGFMATSPPEDRPGGGGGPAGGAEDLAELDQLLRQRPSGAMPSEIKGLEFSEGLAQGKKQRLSKKLRRKLQMWLWSQTFCPVLYAWNDLGSRFWPRYVKVGSCFSKRSCSVPEGMVCKPSKSVHLTVLRWRCQRRGGQRCGWIPIQYPIISECKCSC
B4 was tested, and the ALP activity ([5]; protein at 1 μg/ml) was “no effect”, the ALP activity ([5]; protein at 5 μg/ml) was “significantly increased” and the “stimulatory effect of BMP-6 on alkaline phosphatase activity (antagonism)” value ([3]; 500 ng/ml BMP-6, 72 hrs) was “antagonized”. For the same molecule, the “IC50, decrease of BMP-6 stimulated alkaline phosphatase activity” value ([3]; pre-incubated with 500 ng/ml BMP-6 for 1 hr, 72 hrs) was 0.3 µg/mL and the caspase activity [6] was “no increase; also recorded: no significant effect”.
